Assay results: article PMC5133935, “Hydrostatin-TL1, an Anti-Inflammatory Active Peptide from the Venom Gland of Hydrophis cyanocinctus in the South China Sea” (International Journal of Molecular Sciences, 2016)
Entries after “also recorded” stand apart in the source; their conditions may differ. No end group written: not given here.

How the values were obtained:
TNF-α/TNFR1 = assay: SPR analysis, TNF-α binding to chip-immobilized TNFR1; design: species or system human; conditions: H-TL1 0.5 and 1 μM; hrTNF-α 100 nM; sTNFR1 on CM5 chip, BIAcore T200; 360 s association, 200 s dissociation
Protocol: The T7Select1-2b display vector, T7 select primers, blocking reagent, and elution buffer were purchased from Novagen (Merck, Kenilworth, NJ, USA). […] DSS (36–50 kDa) was bought from MP Biomedicals (Solon, OH, USA). MTT, actinomycin D, and LPS were purchased from Sigma-Aldrich (St. Louis, MO, USA).
sTNFR1 (100 μg/mL) was covalently immobilized onto a CM5 sensor chip by the BIAcore T200 system (Biacore, GE Healthcare) following manufacturer’s instructions. To determine whether H-TL1 inhibits the binding of TNF-α to TNFR1, hrTNF-α was diluted in running buffer at 100 nM with or without different concentrations of H-TL1 (0.1, 0.5, and 1 μM) and subsequently passed over the sTNFR1-immobilized chip for 360 s, followed by dissociation for 200 s. The response unit indicates binding ability.

L929 cells = type: cell-based, mouse; conditions: H-TL1 100 μM; data not shown
Protocol: We used the L929 cell line, which is commonly chosen by researchers, to evaluate the effects of H-TL1 on TNF-α-mediated cytotoxicity. The cells were treated with TNF-α and 0.2 μg/mL actinomycin D in the presence of graded concentrations of H-TL1. Cell viability was evaluated using MTT assay. […] Furthermore, H-TL1 was not cytotoxic against L929 cells at 100 μM (data not shown), which far exceeds the concentration of H-TL1 used in the in vitro assays.
The H. cyanocinctus specimens were captured during September 2005 in the South China Sea near Guangdong Province, People’s Republic of China. After collection, the snakes were killed, and the venom glands were isolated and immediately frozen in liquid nitrogen until use. HEK-293 human embryonic kidney and L929 mouse fibroblast cell lines were obtained from ATCC and cultured in Dulbecco’s modified Eagle’s medium (DMEM, Sigma-Aldrich, St. Louis, MO, USA) containing 10% (v/v) heat-inactivated fetal bovine serum (FBS, Gibco, BRL, Grand Island, NY, USA) at 37 °C in an atmosphere of 5% CO2. The BLT5403 E. coli strain (used as the phage host strain) was from Novagen (Merck) and was cultured at 37 °C for propagation. The specific pathogen-free (SPF) male BALB/c and C57BL/6 mice (both 6–8 weeks old), weighing 20 ± 2 g were purchased from Shanghai SLAC Laboratory Animal Co., Ltd. (Shanghai, China). […]

[1] = test system: LPS-induced lung tissue damage, C57BL/6 mice; assay: Lung histopathology in LPS-induced acute shock; type: in vivo, mouse; conditions: 12 h after LPS; H&E 200×; n = 8
Protocol: (§1) The LPS-induced acute shock model was established in male C57BL/6 mice (6–8 weeks old) that were randomly allocated to five groups. LPS was administered (15 mg/kg body weight) to induce acute shock. The LPS- or normal saline-treated mice were injected with 100 μL of normal saline with or without LPS intraperitoneally, while the H-TL1 and LPS-treated mice were each administered H-TL1 at three doses of 20, 40, and 80 μg/kg 1, 3, and 5 h after the LPS injection (Figure 5A). The mice were observed every 4 h to evaluate mortality.
To assess lung damage, lung tissues were excised, inflated with 4% neutral formalin, and H&E stained 12 h following LPS injection. The lung parenchyma was examined by light microscopy and graded based on the degree of congestion, edema, inflammation, and hemorrhage. Each characteristic was scored on a scale of 0 to 3 (0, absent; 1, light; 2, moderate; and 3, strong).

[2] = test system: TNF-α expression in lung tissue of LPS-treated mice; assay: Immunohistochemistry, TNF-α in lung tissue; type: in vivo, mouse; conditions: IHC 400×, n = 8, *** p < 0.001 vs. LPS group
Protocol: as §1
An additional set of paraffin sections was used for immunohistochemical analysis of TNF-α expression. Sections (5-μm thick) were mounted on slides, cleaned, hydrated, blocked with endogenous peroxidase (Dako, S2001), washed with PBS, and then treated with citrate buffer ([…], pH 6.0) for target antigen retrieval. The sections were treated with a buffered blocking solution (3% BSA in PBS for 15 min), incubated for 1 h at room temperature with a primary polyclonal antibody specific to mouse TNF-α, washed with PBS, and incubated with a secondary HRP-labeled antibody (Abcam) (1:500 in PBS, v/v) at room temperature for 1 h. Then, the sections were washed again with Tris-HCl 0.05 M, pH 7.6, and subsequently incubated with 3,3′-diaminobenzidine (DAB) solution in the dark at room temperature for 10 min. […]

[3] = test system: HEK-293 cells, TNF-α-induced expression of pro-inflammatory factors; assay: Real-time PCR, TNF-α-induced gene expression in HEK-293 cells; type: cell-based, human; conditions: TNF-α 20 ng/mL, 2^−ΔΔCt, GAPDH, n = 3
From the text: NF-κB activation through TNF-α/TNFR interactions upregulates the expression of chemokines and adhesion factors such as IL-8, TNF-α, ICAM-1, and VCAM-1 [25, 26]. To determine whether H-TL1 inhibits TNF-α-mediated pro-inflammatory activity, we further assessed the inhibitory activity of H-TL1 on TNF-α-induced expression of these genes in HEK-293 cells.
The H. cyanocinctus specimens were captured during September 2005 in the South China Sea near Guangdong Province, People’s Republic of China. After collection, the snakes were killed, and the venom glands were isolated and immediately frozen in liquid nitrogen until use. HEK-293 human embryonic kidney and L929 mouse fibroblast cell lines were obtained from ATCC and cultured in Dulbecco’s modified Eagle’s medium (DMEM, Sigma-Aldrich, St. Louis, MO, USA) containing 10% (v/v) heat-inactivated fetal bovine serum (FBS, Gibco, BRL, Grand Island, NY, USA) at 37 °C in an atmosphere of 5% CO2. The BLT5403 E. coli strain (used as the phage host strain) was from Novagen (Merck) and was cultured at 37 °C for propagation. The specific pathogen-free (SPF) male BALB/c and C57BL/6 mice (both 6–8 weeks old), weighing 20 ± 2 g were purchased from Shanghai SLAC Laboratory Animal Co., Ltd. (Shanghai, China). The mice were housed in animal facilities with 50% humidity under a 12-h light-dark cycle, fed a standard pellet diet, and provided with tap water ad libitum. The animal experimental protocols in this research, including venom gland isolation and the mouse study, were approved by the Animal Care and Use Committee of the Second Military Medical University.
Total RNA was extracted from colon tissue specimens or cells using Trizol reagent (Takara) according to the manufacturer’s instructions and was then reverse transcribed using random primers. Real-time PCR was performed on a StepOne Real-Time PCR System (Applied Biosystems, Foster City, CA, USA) to analyze the mRNA expression levels of IL-8, TNF-α, IL-1β, IL-6, VCAM-1, and ICAM-1. The relative fold changes of target gene expression were comparatively quantified by the 2^−ΔΔCt method. GAPDH was chosen as the internal control gene, and samples without treatment were designated as the comparing reference. Primers used in this study were based on published sequences.

Substance: ATSKPSLKC-OH [H-TL1]
- attenuation of SPR response of TNF-α to TNFR1 (TNF-α/TNFR1): inhibits the association of TNF-α with sensor chip-immobilized TNFR1; also recorded: the elicited response was markedly attenuated
- cytotoxicity against L929 cells (L929 cells): not cytotoxic
- lung parenchymal damage and inflammatory cell infiltration [1]: markedly reduced lung parenchymal damage and inflammatory cell infiltration
- TNF-α expression in lung tissue [2]: attenuated this effect
- TNF-α-induced expression of ICAM-1 [3]: suppresses TNF-α-induced expression of IL-8, TNF-α, ICAM-1, and VCAM-1 in a concentration-dependent manner
- TNF-α-induced expression of IL-8 [3]: suppresses TNF-α-induced expression of IL-8, TNF-α, ICAM-1, and VCAM-1 in a concentration-dependent manner
- TNF-α-induced expression of TNF-α [3]: suppresses TNF-α-induced expression of IL-8, TNF-α, ICAM-1, and VCAM-1 in a concentration-dependent manner
- TNF-α-induced expression of VCAM-1 [3]: suppresses TNF-α-induced expression of IL-8, TNF-α, ICAM-1, and VCAM-1 in a concentration-dependent manner
